The values below come from ChEMBL document CHEMBL4219204, “Structure-based design and discovery of potent and selective KDM5 inhibitors” (Bioorg Med Chem Lett, 2018).

The structures appear in SMILES notation.

The target of assay [1] is T1, Lysine-specific demethylase 4D (Homo sapiens, UniProt Q6B0I6).
T1 sequence (Q6B0I6 whole entry): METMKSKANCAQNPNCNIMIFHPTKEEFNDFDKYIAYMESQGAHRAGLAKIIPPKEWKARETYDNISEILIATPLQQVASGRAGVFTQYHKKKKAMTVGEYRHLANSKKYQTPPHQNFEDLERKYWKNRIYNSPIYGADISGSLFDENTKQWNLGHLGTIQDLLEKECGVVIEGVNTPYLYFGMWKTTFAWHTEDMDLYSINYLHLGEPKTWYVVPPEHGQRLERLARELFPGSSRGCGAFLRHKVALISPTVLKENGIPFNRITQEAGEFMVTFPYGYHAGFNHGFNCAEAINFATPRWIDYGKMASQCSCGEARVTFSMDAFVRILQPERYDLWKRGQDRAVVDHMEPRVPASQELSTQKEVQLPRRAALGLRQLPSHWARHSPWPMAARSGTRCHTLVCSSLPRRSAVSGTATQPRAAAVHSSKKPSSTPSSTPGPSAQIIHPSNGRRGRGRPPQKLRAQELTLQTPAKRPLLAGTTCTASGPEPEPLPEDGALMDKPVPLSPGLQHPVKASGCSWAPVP
The assay is described as follows: Inhibition of KDM4D (unknown origin).

Assay [2] deals with T2, Lysine-specific demethylase 3A (Homo sapiens, UniProt Q9Y4C1).
T2 sequence (Q9Y4C1 whole entry): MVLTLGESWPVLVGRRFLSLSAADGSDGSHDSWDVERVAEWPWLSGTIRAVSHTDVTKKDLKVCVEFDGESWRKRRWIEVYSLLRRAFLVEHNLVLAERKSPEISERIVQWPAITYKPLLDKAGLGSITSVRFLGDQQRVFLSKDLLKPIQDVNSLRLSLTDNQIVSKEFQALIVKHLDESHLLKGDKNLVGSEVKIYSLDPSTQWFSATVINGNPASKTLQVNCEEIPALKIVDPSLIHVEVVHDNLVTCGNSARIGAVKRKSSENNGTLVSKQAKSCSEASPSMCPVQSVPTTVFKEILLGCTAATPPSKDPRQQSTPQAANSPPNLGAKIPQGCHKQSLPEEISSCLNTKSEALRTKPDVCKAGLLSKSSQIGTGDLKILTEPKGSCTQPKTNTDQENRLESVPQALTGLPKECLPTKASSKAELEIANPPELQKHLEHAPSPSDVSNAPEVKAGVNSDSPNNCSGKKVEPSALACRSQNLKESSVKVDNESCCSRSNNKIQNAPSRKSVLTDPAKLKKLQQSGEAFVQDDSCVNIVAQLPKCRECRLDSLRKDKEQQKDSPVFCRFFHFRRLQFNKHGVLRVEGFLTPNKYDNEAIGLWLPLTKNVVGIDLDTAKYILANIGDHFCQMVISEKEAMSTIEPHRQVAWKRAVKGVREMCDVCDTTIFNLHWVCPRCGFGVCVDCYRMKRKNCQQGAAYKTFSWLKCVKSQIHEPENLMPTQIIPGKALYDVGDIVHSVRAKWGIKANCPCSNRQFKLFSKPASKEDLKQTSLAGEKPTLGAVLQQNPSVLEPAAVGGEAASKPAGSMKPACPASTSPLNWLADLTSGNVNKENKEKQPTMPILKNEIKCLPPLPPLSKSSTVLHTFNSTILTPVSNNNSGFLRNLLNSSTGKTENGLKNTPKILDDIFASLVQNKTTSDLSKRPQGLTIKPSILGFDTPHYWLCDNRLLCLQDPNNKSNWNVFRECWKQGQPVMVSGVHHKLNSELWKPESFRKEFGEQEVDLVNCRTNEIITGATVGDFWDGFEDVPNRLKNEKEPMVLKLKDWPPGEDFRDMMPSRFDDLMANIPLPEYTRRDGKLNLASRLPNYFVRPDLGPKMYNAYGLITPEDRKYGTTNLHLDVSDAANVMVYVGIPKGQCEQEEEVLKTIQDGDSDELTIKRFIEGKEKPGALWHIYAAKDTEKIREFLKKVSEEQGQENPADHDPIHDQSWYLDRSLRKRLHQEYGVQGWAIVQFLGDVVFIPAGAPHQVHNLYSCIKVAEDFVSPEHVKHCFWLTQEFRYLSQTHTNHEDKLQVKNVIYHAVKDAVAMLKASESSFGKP
The assay is described as follows: Inhibition of KDM3A (unknown origin).

The target in assay [3] is T3, Lysine-specific demethylase 2A (Homo sapiens, UniProt Q9Y2K7).
T3 sequence (Q9Y2K7 whole entry): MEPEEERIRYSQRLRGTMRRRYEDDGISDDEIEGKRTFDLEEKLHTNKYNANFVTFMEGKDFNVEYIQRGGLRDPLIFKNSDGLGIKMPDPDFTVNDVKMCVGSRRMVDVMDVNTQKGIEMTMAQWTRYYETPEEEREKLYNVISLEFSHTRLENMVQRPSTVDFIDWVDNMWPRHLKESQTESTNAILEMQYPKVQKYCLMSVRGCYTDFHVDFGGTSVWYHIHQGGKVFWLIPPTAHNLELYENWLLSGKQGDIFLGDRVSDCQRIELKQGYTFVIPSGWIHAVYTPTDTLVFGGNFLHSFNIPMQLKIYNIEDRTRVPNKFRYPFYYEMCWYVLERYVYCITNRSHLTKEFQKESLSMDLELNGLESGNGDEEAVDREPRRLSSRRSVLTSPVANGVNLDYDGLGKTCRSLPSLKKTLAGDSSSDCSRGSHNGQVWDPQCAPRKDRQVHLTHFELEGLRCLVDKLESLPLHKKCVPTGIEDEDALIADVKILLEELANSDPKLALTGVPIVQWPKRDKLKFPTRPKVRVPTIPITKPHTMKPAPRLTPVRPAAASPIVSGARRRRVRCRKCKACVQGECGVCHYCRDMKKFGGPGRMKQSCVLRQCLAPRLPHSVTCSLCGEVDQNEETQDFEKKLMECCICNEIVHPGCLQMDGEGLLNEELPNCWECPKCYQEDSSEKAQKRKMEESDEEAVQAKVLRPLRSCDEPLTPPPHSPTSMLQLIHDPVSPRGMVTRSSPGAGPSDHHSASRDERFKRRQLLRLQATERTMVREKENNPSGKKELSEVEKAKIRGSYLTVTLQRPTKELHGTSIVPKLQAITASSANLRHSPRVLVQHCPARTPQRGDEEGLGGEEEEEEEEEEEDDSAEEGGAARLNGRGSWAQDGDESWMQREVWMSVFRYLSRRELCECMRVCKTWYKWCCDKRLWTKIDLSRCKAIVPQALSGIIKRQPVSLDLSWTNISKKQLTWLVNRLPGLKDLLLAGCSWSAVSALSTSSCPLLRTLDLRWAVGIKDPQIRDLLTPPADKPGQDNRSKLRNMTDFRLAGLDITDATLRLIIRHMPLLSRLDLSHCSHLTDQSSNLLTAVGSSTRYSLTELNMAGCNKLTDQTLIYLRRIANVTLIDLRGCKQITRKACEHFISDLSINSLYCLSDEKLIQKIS
The assay is described as follows: Inhibition of KDM2A (unknown origin).

Broadly, the IC50 is the concentration that inhibits the measured activity by half. Read a low IC50 as greater potency. On to `Cc1cc(Cl)ccc1COc1ccnn1-c1cc(C(=O)O)ccn1`, for which the IC50 in assay [1] stood at 0.11 µM; in assay [2], 2.3 µM; in assay [3], 0.82 µM.
